The subject of test [1] is RGC-5 (rat ganglion cell-5). Nature of the test: Retinal neuron protection under necroptosis inducing (TCZ; TNFα+cycloheximide+zVAD) condition, LDH assay. It is filed as cell-based. The note with it: RGC-5, TCZ 15 hours, compound 20 μM, DMSO control = 100%. On the procedure:
The following experiment was performed to evaluate the retinal neuron protection effect of the compounds of the invention under necroptosis inducing condition.
The retinal ganglion cell line RGC-5 (rat ganglion cell-5) was cultured in DMEM (Dulbecco's modified Eagle's medium) supplemented with 10% FBS (fetal bovine serum) and 1% penicillin/streptomycin. The cells were distributed in a 96-well plate at the density of 8×10^3 cells/well, followed by culture in a 37° C., CO2 incubator for 12 hours. The medium supplemented with TNFα (10 ng/ml), cycloheximide (10 μg/ml), and zVAD (10 μM) (TCZ) was treated with DMSO (0.1%) alone (control) or with the compounds of the invention (20 μM), followed by additional culture in a 37° C., CO2 incubator for 15 hours to induce cell death.
The level of cell death was measured by LDH (lactate dehydrogenase, Roche) assay. The level of the control LDH under TCZ condition was regarded as 100%, and the level of LDH in the cell group cultured in normal medium (10% FBS, DMEM) for the same time was used for the measurement of the relative rate of cell death. The compounds of examples of the invention were treated to wells, each compound for three wells, and then each experiment was performed in triplicate.

In test [2] the target is RIPK1 (receptor-interacting serine/threonine-protein kinase 1) (Homo sapiens (Human), UniProt Q13546). Nature of the test: RIPK1 inhibitory activity, autophosphorylation of immuno-precipitated RIPK1 with [32P]γ-ATP. It is filed as biochemical. The settings on record: for activity at 100 µM: compound 100 μM, remaining RIPK1 phosphorylation; for inhibition at 100 µM: Table 2, 100 μM. On the procedure:
The following experiment was performed to evaluate RIPK1 (receptor-interacting serine/threonine-protein kinase 1) inhibitory activity of the compounds of examples of the invention.
RIPK1 enzyme immuno-precipitated in HEK293 (Human Embryonic Kidney 293) cell lysate was used as kinase. The experiment was performed according to the method described in Cell. 12; 137(6):1112-23(2009). RIPK1 protein was over-expressed in HEK293 cell line, to which lysis buffer (50 mM Tris-Cl [pH 8.0], 150 mM NaCl, 1 mM EDTA, 1% NP-40, 0.4 mM phenylmethylsulfonyl fluoride (PMSF)) was added for cell lysis. Centrifugation was performed at 13,000 rpm for 10 minutes to separate the supernatant. RIPK1 monoclonal antibody (610459, BD Bioscience) and A/G agarose beads (sc-2003, Santa Cruz Biotechnology) were added thereto, followed by immuno-precipitation in a 4° C. rotator for 12 hours.
The immune complex was washed with lysis buffer twice and then washed with kinase assay buffer (20 mM HEPES [pH7.6], 2 mM DTT, 1 mM NaF, 1 mM Na3Vo4, 20 mM β-glycerophosphate, 20 mM PNPP, 20 mM MgCl2, 20 mM MnCl2, 1 mM Benzamidie, and 1 mM EDTA) lastly. Kinase assay buffer and the compound were added to the RIPK1 immuno-precipitate, followed by reaction in a 24° C. constant-temperature water bath for 15 minutes. Additional reaction was induced for 30 minutes at 30° C. after 100 μM of ATP and 10 μCi[^32P] γ-ATP were added thereto. The reaction mixture was washed with kinase assay buffer once, to which protein loading buffer was added, followed by heating at 100° C. for 3 minutes. The reaction mixture was then loaded on 8% SDS-PAGE gel. Radioactive image of the phosphorylated RIPK1 was detected with FLA-7000 (GE healthcare). The image Quant TL program was used for the quantification.

For test [3], the system named is RGC-5 (rat ganglion cell). Nature of the test: Retinal nerve protection under oxygen-glucose deprivation (OGD), LDH assay. It counts as cell-based. The note with it: RGC-5, OGD 15 hours, compound 20 μM, DMSO control = 100%. On the procedure:
The following experiment was performed to evaluate the protective effect of the compounds of examples of the invention on the retinal nerve under oxygen-glucose deprivation condition.
The retinal ganglion cell line RGC-5 (rat ganglion cell) was cultured in DMEM (Dulbecco's modified Eagle's medium) supplemented with 10% FBS (fetal bovine serum) and 1% penicillin/streptomycin. The cells were distributed in a 96-well plate at the density of 8×10^3 cells/well, followed by culture in a 37° C., CO2 incubator for 12 hours. The cells were washed with PBS once and the medium was replaced with glucose free DMEM. The cells were treated with either DMSO (0.1%) alone (control) or with the compounds of examples (20 μM) shown in Table 3, followed by culture in an anaerobic incubator (10% H2, 5% CO2, 85% N2, 37° C., chamber (ThermoForma, USA)) for 15 hours to induce cell death.
The level of cell death was measured by LDH (lactate dehydrogenase, Roche) assay. The LDH assay is a method for measuring the activity of LDH released from the damaged cells into the culture medium. NAD^+ was reduced to NADH and H^+ by LDH, and the bond of tetrazolium salt INT ring was cleaved by diaphorase to form formazan. Absorbance of the formazan was measured at 490 nm by using Victor 3 (PerkinElmer). The absorbance reflects the amount of dead cells.
The level of the control LDH under oxygen-glucose deprivation condition was regarded as 100%, and the level of LDH in the cell group cultured in normal medium (10% FBS, DMEM) for the same time was regarded as 0%. Based on that, the levels of LDH of the cell groups treated with the compounds of the invention under oxygen-glucose deprivation condition were converted into the relative ratio of cell death. The compounds of examples of the invention were treated to wells, each compound for three wells, and then each experiment was performed in triplicate.

SMILES strings stand for the structures. A value given as a limit tells only on which side of the number the result lay.

Sequence of RIPK1 (receptor-interacting serine/threonine-protein kinase 1) (Q13546 whole entry, species assumed): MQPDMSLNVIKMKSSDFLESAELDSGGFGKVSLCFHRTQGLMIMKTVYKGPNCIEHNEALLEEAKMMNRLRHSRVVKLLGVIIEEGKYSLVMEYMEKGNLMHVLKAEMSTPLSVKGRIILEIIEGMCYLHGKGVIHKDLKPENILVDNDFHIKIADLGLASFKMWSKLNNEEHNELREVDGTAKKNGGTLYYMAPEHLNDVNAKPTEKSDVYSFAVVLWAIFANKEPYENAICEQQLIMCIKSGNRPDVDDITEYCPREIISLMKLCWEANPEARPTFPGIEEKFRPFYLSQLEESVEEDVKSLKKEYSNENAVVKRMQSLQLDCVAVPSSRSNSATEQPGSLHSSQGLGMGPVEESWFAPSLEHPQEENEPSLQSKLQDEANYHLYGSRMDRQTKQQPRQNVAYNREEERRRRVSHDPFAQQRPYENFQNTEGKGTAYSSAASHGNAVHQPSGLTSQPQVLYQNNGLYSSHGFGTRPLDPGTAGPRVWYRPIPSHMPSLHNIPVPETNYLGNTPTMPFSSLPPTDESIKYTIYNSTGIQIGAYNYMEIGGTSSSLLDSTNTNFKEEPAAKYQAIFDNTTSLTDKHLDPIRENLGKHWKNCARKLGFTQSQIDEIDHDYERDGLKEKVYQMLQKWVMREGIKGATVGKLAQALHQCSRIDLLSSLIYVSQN

Regarding `O=C(c1cc2c(Br)cnc(Cl)c2s1)N1CCOCC1` [Example 1, (4-bromo-7-chlorothieno[2,3-c]pyridine-2-yl)(morpholino)methanone], in test [1], the “Death of retinal nerve cell (%)” value is 79.3 ± 3.2%. In test [2], the activity at 100 µM is 52.5 ± 7.8%.

Consider `O=C(c1cc2cc(Cl)ccc2[nH]1)N1CCOCC1` [Example 12, (5-chloro-1H-indole-2-yl)(morpholino)methanone], for which the “Death of retinal nerve cell (%)” value in test [3] amounted to 35.7 ± 0.1%; in test [1] it was 50.5 ± 7.4%. The activity at 100 µM in test [2] amounted to 60%.

With `O=C(c1cc2c(Br)cncc2s1)N1CCOCC1` [Example 3, (4-bromothieno[2,3-c]pyridine-2-yl)(morpholino)methanone], the “Death of retinal nerve cell (%)” value in test [1] was 79.6 ± 3.2%. The activity at 100 µM in test [2] amounted to 52 ± 2.8%.

Consider `O=C(c1cc2cccc(Br)c2s1)N1CCOCC1` [Example 29, (7-bromobenzo[b]thiophene-2-yl)(morpholino)methanone], for which the figures for the “Death of retinal nerve cell (%)” value in test [3] and in test [1] were 51.4 ± 10.9% and 78.4 ± 6.5%, respectively. Further, the activity at 100 µM in test [2] was determined as 82.5 ± 24.7%.

In the case of `COc1ccc(-c2cccc3sc(C(=O)N4CCOCC4)cc23)cc1` [Example 34, (4-(4-methoxyphenyl)benzo[b]thiophene-2-yl)(morpholino)methanone], in test [3], the “Death of retinal nerve cell (%)” value came to 55.4 ± 18.1%. Moreover, in test [2], the activity at 100 µM is 16.5 ± 7.8%.

Consider `O=C(c1cc2c(Cc3ccc(F)cc3)cccc2s1)N1CCOCC1` [Example 67, (4-(4-fluorobenzyl)benzo[b]thiophene-2-yl)(morpholino)methanone], for which the “Death of retinal nerve cell (%)” value in test [3] came to 59.3 ± 14.9%. In test [2], this compound displayed an inhibition at 100 µM of at least 50% and an activity at 100 µM of 49.5 ± 3.5%.

With `O=C(c1cc2c(OCc3ccc(F)cc3)cccc2s1)N1CCOCC1` [Example 61, (4-(4-fluorobenzyloxy)benzo[b]thiophene-2-yl)(morpholino)methanone], the “Death of retinal nerve cell (%)” value in test [3] is 53.5 ± 14.5%. In test [2], this compound gave an inhibition at 100 µM of at least 50% and an activity at 100 µM of 22.5 ± 12%.

Turning to `O=C(c1cc2c(Cc3cccc(F)c3)cccc2s1)N1CCOCC1` [Example 56, (4-(3-fluorobenzyl)benzo[b]thiophene-2-yl)(morpholino)methanone], the “Death of retinal nerve cell (%)” value in test [3] came to 81.0 ± 16.1%. Further, in test [2], the activity at 100 µM came to 54.5 ± 37.5%.

`O=C(c1cc2cc(-c3ccc(F)cc3)ccc2s1)N1CCOCC1` [Example 40, (5-(4-fluorophenyl)benzo[b]thiophene-2-yl)(morpholino)methanone]: in test [3], the “Death of retinal nerve cell (%)” value was found to be 68.2 ± 11.2%. The compound also returned an activity at 100 µM in test [2] of 57.5 ± 12%.

Consider `O=C(c1cc2ccc3ccccc3c2s1)N1CCOCC1` [Example 6, morpholino(naphtho[1,2-b]thiophene-2-yl)methanone], for which the “Death of retinal nerve cell (%)” value in test [3] was 30.7 ± 1.06%. For the same compound, in test [2], the inhibition at 100 µM was at least 50% and the activity at 100 µM was found to be 48.5 ± 23.3%.

Consider `O=C(c1cc2c(Cc3ccc(F)cc3F)cccc2s1)N1CCOCC1` [Example 57, (4-(2,4-difluorobenzyl)benzo[b]thiophene-2-yl)(morpholino)methanone], for which the “Death of retinal nerve cell (%)” value in test [3] stood at 89.1 ± 16.9%. In test [2], this compound registered an activity at 100 µM of 20 ± 14.1%.

For `O=C(c1cc2c(S(=O)(=O)Cc3ccc(F)cc3)cccc2s1)N1CCOCC1` [Example 62, (4-(4-fluorobenzylsulfonyl)benzo[b]thiophene-2-yl)(morpholino)methanone], the “Death of retinal nerve cell (%)” value in test [3] was 59.3 ± 16.3%. The same compound registered an activity at 100 µM in test [2] of 82.5 ± 5%.

Consider `CN(c1ccc(F)cc1)c1cccc2sc(C(=O)N3CCOCC3)cc12` [Example 69, (4-((4-fluorophenyl)(methyl)amino)benzo[b]thiophene-2-yl)(morpholino)methanone], for which the “Death of retinal nerve cell (%)” value in test [3] is recorded as 69.4 ± 10.9%. Further, in test [2], the inhibition at 100 µM was at least 50% and the activity at 100 µM stood at 22.5 ± 16.3%.

Consider `O=C(c1cc2cc(O)ccc2[nH]1)N1CCOCC1` [Example 11, (5-hydroxy-1H-indole-2-yl)(morpholino)methanone], for which, in test [3], the “Death of retinal nerve cell (%)” value came out at 41.1 ± 3.1%. In addition, in test [2], the activity at 100 µM came out at 70.7 ± 28.5%.

On to `O=C(c1cc2c(-c3ccc(F)cc3)ccc(Cl)c2s1)N1CCOCC1` [Example 53, (7-chloro-4-(4-fluorophenyl)benzo[b]thiophene-2-yl)(morpholino)methanone], for which the “Death of retinal nerve cell (%)” value in test [3] is 59.9 ± 9.7%. In test [2], this compound yielded an activity at 100 µM of 70 ± 4.2%.

For the compound `CCN(CC)C(=O)c1cccc2sc(C(=O)N3CCOCC3)cc12` [Example 20, N,N-diethyl-2-(morpholine-4-carbonyl)benzo[b]thiophene-4-carboxamide], in test [3], the “Death of retinal nerve cell (%)” value came out at 43.6 ± 8.5%. The compound further registered an activity at 100 µM in test [2] of 77 ± 12.5%.

On to `O=C(c1cc2c(-c3ccc4[nH]ccc4c3)cccc2s1)N1CCOCC1` [Example 9, (4-(1H-indole-5-yl)benzo[b]thiophene-2-yl)(morpholino)methanone], for which the “Death of retinal nerve cell (%)” value in test [3] was 64.6 ± 9.5%. Also, the activity at 100 µM in test [2] was 76 ± 33.9%.

In the case of `O=C(c1cc2c(-c3ccc(Br)cc3)cccc2s1)N1CCOCC1` [Example 54, (4-(4-bromophenyl)benzo[b]thiophene-2-yl)(morpholino)methanone], the “Death of retinal nerve cell (%)” value in test [3] was 74.3 ± 5.1%. The same compound displayed an activity at 100 µM in test [2] of 54.5 ± 37.5%.

Regarding `Cc1ccc(-c2cccc3sc(C(=O)N4CCOCC4)cc23)cc1` [Example 32, morpholino(4-p-tolylbenzo[b]thiophene-2-yl)methanone], in test [3], the “Death of retinal nerve cell (%)” value was determined as 64.6 ± 7.4%. This compound also returned an activity at 100 µM in test [2] of 6.5 ± 4.9%.

Regarding `O=C(c1cc2c(-c3ccc(OC(F)(F)F)cc3)cccc2s1)N1CCOCC1` [Example 45, morpholino(4-(4-(trifluoromethoxy)phenyl)benzo[b]thiophene-2-yl)methanone], in test [3], the “Death of retinal nerve cell (%)” value is given as 89.4 ± 14.0%. The compound also yielded an activity at 100 µM in test [2] of 86.7 ± 34.6%.

As for `O=C(O)C1COCCN1C(=O)c1cc2c(-c3ccc(F)cc3)cccc2s1` (stereo not drawn) [Example 8, 4-(4-(4-fluorophenyl)benzo[b]thiophene-2-carbonyl)morpholine-3-carboxylic acid], the “Death of retinal nerve cell (%)” value in test [3] is on record as 52.3 ± 11.1%. In test [2], this compound yielded an activity at 100 µM of 88.5 ± 16.3%.

Regarding `Cn1cc(-c2cccc3sc(C(=O)N4CCOCC4)cc23)cn1` [Example 73, (4-(1-methyl-1H-pyrazol-4-yl)benzo[b]thiophene-2-yl)(morpholino)methanone], in test [3], the “Death of retinal nerve cell (%)” value is listed as 62.3 ± 10.1%. Moreover, in test [2], the inhibition at 100 µM is at least 50% and the activity at 100 µM worked out at 22 ± 19.8%.

A word on the inhibition: it is the share of the control response that was lost under treatment.
